In patent US5853731A, “Thromboxane A2 Receptor antagonism and antioxidant action of cinnamophilin and its derivatives, their pharmaceutical compositions and uses” (National Science Council, priority 1997, dated 1998):
Where two headings read alike, the source gives them in different places.

What was measured:
guinea-pig trachea = molecular target: T1, guinea-pig trachea (Cavia porcellus, UniProt A0A286Y4I8); experiment: Guinea-pig tracheal contraction caused by U-46619; assay type: cell-based; conditions: for activity at 10 µM / activity at 30 µM / activity at 100 µM: guinea pig, read-out: Contraction (% of maximal contraction); for activity at 10 µM: cinnamophilin 10 μM; for activity at 30 µM: cinnamophilin 30 μM; for activity at 100 µM: cinnamophilin 100 μM
T1 construct: Tracheae from guinea-pigs were dissected out; from tissue; host or cells: guinea-pig trachea
T1 sequence (A0A286Y4I8 1-347): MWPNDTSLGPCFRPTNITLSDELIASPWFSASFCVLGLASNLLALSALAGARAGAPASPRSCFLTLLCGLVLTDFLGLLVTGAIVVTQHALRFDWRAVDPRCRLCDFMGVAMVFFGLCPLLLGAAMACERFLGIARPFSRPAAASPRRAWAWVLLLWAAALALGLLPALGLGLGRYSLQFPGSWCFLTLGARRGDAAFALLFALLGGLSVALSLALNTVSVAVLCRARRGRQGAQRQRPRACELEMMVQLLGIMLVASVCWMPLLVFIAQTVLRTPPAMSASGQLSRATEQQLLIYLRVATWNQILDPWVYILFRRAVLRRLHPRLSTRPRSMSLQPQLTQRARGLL
Protocol: B. Guinea-pig tracheal contraction
Tracheae from guinea-pigs were dissected out, transferred to a dish containing Krebs solution and cut transversely between the segments of cartilage. Several of these, usually about 5, were tied together so as to form a chain, which was then mounted in Krebs solution at 37° C., gassed with 95% O2 plus 5% CO2. One end of the chain was attached to a fixed pin in the bath and the other to a transducer connected to a Grass polygraph. Resting tension of each tissue was set at 1 g, Tracheae were allowed to equilibrate for at least 1 hr and washed-periodically.
Cumulative concentration-response curves were obtained by application of various concentrations of spasmogens for 15-18 min at 3 minutes intervals. Tracheal rings were pre-incubated with cinnamophilin for 15 min, then various concentrations of spasmogens were added for 15-18 min at 3 min intervals. Results were expressed as percentage of the maximal control response for each agonist.

thromboxane B2 formation = experiment: Thromboxane B2 formation caused by arachidonic acid (AA); assay type: cell-based; conditions: for Thromboxane B2: caused by AA
PGE2 formation = experiment: Prostaglandin E2 formation caused by arachidonic acid (AA); assay type: cell-based; conditions: for Prostaglandin E2: caused by AA
[1] = Antioxidation (absorbance at 500 nm, FeSCN method)
Text: (Absorbance at 500 nm, using FeSCN method)

Kb (guinea-pig trachea; against U-46619, read-out: pA2, guinea-pig tracheal contraction induced by U-46619 (converted)): 6.31 µM
activity at 10 µM (guinea-pig trachea; U-46619 0.01 μM): 5.7 ± 2%
activity at 10 µM (guinea-pig trachea; U-46619 0.02 μM): 17.1 ± 4.5%
activity at 10 µM (guinea-pig trachea; U-46619 0.05 μM): 35 ± 5%
activity at 10 µM (guinea-pig trachea; U-46619 0.1 μM): 52 ± 5%
activity at 10 µM (guinea-pig trachea; U-46619 0.2 μM): 70 ± 6%
activity at 10 µM (guinea-pig trachea; U-46619 0.5 μM): 79 ± 4%
activity at 10 µM (guinea-pig trachea; U-46619 1 μM): 85 ± 5%
activity at 10 µM (guinea-pig trachea; U-46619 2 μM): 90 ± 4%
activity at 10 µM (guinea-pig trachea; U-46619 5 μM): 94 ± 4%
activity at 30 µM (guinea-pig trachea; U-46619 0.02 μM): 3%
activity at 30 µM (guinea-pig trachea; U-46619 0.05 μM): 11 ± 3%
activity at 30 µM (guinea-pig trachea; U-46619 0.1 μM): 22 ± 4%
activity at 30 µM (guinea-pig trachea; U-46619 0.2 μM): 35 ± 4%
activity at 30 µM (guinea-pig trachea; U-46619 0.5 μM): 52 ± 5%
activity at 30 µM (guinea-pig trachea; U-46619 1 μM): 67 ± 4%
activity at 30 µM (guinea-pig trachea; U-46619 2 μM): 80 ± 4.5%
activity at 30 µM (guinea-pig trachea; U-46619 5 μM): 88 ± 5%
activity at 30 µM (guinea-pig trachea; U-46619 10 μM): 92 ± 5%
activity at 100 µM (guinea-pig trachea; U-46619 0.05 μM): 0%
activity at 100 µM (guinea-pig trachea; U-46619 0.1 μM): 5 ± 3%
activity at 100 µM (guinea-pig trachea; U-46619 0.2 μM): 15 ± 3%
activity at 100 µM (guinea-pig trachea; U-46619 0.5 μM): 27 ± 4.5%
activity at 100 µM (guinea-pig trachea; U-46619 1 μM): 41 ± 4%
activity at 100 µM (guinea-pig trachea; U-46619 2 μM): 55 ± 5.7%
activity at 100 µM (guinea-pig trachea; U-46619 5 μM): 68 ± 5.7%
activity at 100 µM (guinea-pig trachea; U-46619 10 μM): 78 ± 3%
SMILES: COc1cc(CC(C)C(C)C(=O)c2ccc(O)c(OC)c2)ccc1O (centres unmarked) [Compound 1, cinnamophilin]
TXA2 formation caused by AA (thromboxane B2 formation; 0.03-10 μM): inhibit markedly the TXA2 formation
Thromboxane B2 (thromboxane B2 formation; conc 0.01 μM): 371 ± 35 ng/mL
Thromboxane B2 (thromboxane B2 formation; conc 0.03 μM): 278 ± 25 ng/mL
Thromboxane B2 (thromboxane B2 formation; conc 0.1 μM): 200 ± 41 ng/mL
Thromboxane B2 (thromboxane B2 formation; conc 0.3 μM): 128 ± 25 ng/mL
Thromboxane B2 (thromboxane B2 formation; conc 1 μM): 69 ± 25 ng/mL
Thromboxane B2 (thromboxane B2 formation; conc 3 μM): 28 ± 10 ng/mL
Thromboxane B2 (thromboxane B2 formation; conc 10 μM): 20 ± 5 ng/mL
PGE2 level (PGE2 formation; 0.03-10 μM, AA): increase PGE2 and cAMP levels
Prostaglandin E2 (PGE2 formation; conc 0.01 μM): 40 ± 10 ng/mL
Prostaglandin E2 (PGE2 formation; conc 0.03 μM): 75 ± 15 ng/mL
Prostaglandin E2 (PGE2 formation; conc 0.1 μM): 115 ± 15 ng/mL
Prostaglandin E2 (PGE2 formation; conc 0.3 μM): 155 ± 29 ng/mL
Prostaglandin E2 (PGE2 formation; conc 1 μM): 205 ± 19 ng/mL
Prostaglandin E2 (PGE2 formation; conc 3 μM): 245 ± 20 ng/mL
Prostaglandin E2 (PGE2 formation; conc 10 μM): 2665 ± 21 ng/mL
antioxidation capability ([1]; 20 μM, compared with α-tocopherol at same concentration): lower than α-tocopherol at the same concentration
Absorbance at 500 nm ([1]; 20 μM, induce time 0, control 0.047): 0.045
Absorbance at 500 nm ([1]; 20 μM, induce time 4, control 0.084): 0.076
Absorbance at 500 nm ([1]; 20 μM, induce time 7, control 0.201): 0.146
Absorbance at 500 nm ([1]; 20 μM, induce time 10, control 0.343): 0.176
Absorbance at 500 nm ([1]; 20 μM, induce time 16): 0.346
Absorbance at 500 nm ([1]; 20 μM, induce time 19): 0.399
Absorbance at 500 nm ([1]; 20 μM, induce time 22): 0.508
Absorbance at 500 nm ([1]; 20 μM, induce time 25): 0.796
Absorbance at 500 nm ([1]; 20 μM, induce time 28): 1.301
inhibitory effect on fatty oil peroxidation ([1]; 40 μM): potential inhibitory effect on fatty oil peroxidation
Absorbance at 500 nm ([1]; 40 μM, induce time 0, control 0.047): 0.037
Absorbance at 500 nm ([1]; 40 μM, induce time 4, control 0.084): 0.056
Absorbance at 500 nm ([1]; 40 μM, induce time 7, control 0.201): 0.082
Absorbance at 500 nm ([1]; 40 μM, induce time 10, control 0.343): 0.116
Absorbance at 500 nm ([1]; 40 μM, induce time 16): 0.156
Absorbance at 500 nm ([1]; 40 μM, induce time 19): 0.204
Absorbance at 500 nm ([1]; 40 μM, induce time 22): 0.256
Absorbance at 500 nm ([1]; 40 μM, induce time 25): 0.282
Absorbance at 500 nm ([1]; 40 μM, induce time 28): 0.349
Absorbance at 500 nm ([1]; 40 μM, induce time 31): 0.405
Absorbance at 500 nm ([1]; 40 μM, induce time 34): 0.453
Absorbance at 500 nm ([1]; 40 μM, induce time 37): 0.525
Absorbance at 500 nm ([1]; 40 μM, induce time 40): 0.687
antioxidation capability versus control ([1]; compared with 0.5% DMSO as control): potential antioxidation capable comparing to 0.5% DMSO as control
